Usually pIC50 stands for the negative decadic logarithm of the IC50, by convention in mol/L.

pIC50: −log10 of the molar value. Where only a bound is given, the exact number is not on record here.

The target of test [1] is PIM (PIM-1, PIM-2, and/or PIM-3). Kind of test: PIM-1, PIM-2 and PIM-3 inhibition, biochemical chemiluminescence assays (Kinase Glo, IC50 determination). The following applies: Table 1 activity class; PIM refers to PIM-1, PIM-2, and/or PIM-3; read-out: PIM IC50 (Activity B). For orientation: In Kinase-Glo more light means more ATP remaining.
Test [2] concerns the target CK2 (Homo sapiens, UniProt P68400). Put plainly: CK2 inhibition, biochemical chemiluminescence holoenzyme assay (Kinase Glo, IC50 determination). The following applies: Table 1 activity class; symbol given only if active; read-out: CK2 IC50 (Activity C). The gist of the method:
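Holoenzyme CK2 assay; compounds pre-incubated with substrate and enzyme, then reacted 150 min at 24-27° C. Remaining ATP measured as luminescence with Kinase Glo, and IC50 derived from the signal.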

Sequence of CK2 (P68400 whole entry): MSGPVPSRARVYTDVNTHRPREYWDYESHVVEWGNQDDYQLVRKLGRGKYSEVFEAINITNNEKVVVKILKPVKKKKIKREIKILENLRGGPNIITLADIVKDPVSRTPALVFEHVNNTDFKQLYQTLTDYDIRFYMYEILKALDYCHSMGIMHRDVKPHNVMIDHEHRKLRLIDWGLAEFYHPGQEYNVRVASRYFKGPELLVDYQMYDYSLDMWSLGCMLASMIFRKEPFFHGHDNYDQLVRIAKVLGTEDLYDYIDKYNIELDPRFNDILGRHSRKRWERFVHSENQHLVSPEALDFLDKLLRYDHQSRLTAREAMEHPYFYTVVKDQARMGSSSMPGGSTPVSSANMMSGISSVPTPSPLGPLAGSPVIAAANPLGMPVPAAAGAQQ
Sequence of CK2 (P67870 whole entry partner): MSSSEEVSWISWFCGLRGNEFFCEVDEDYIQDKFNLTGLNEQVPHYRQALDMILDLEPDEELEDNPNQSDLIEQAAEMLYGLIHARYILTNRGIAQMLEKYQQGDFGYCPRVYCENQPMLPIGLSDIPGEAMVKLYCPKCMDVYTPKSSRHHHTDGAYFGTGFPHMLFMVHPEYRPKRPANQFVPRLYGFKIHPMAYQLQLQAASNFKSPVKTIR

Take `Nc1cccc(-c2nc3c(oc4ccc(Br)cc43)c(=O)[nH]2)c1` [Compound 355, 2-(3-Aminophenyl)-8-bromo[1]benzofuro[3,2-d]pyrimidin-4(3H)-one]: the pIC50 in test [1] and in test [2] was above 5.00 in each case.

As for `CC(=O)Nc1ccc(C(=O)Nc2ccc(Cl)c(-c3nc4c(oc5ccc(Br)cc54)c(=O)[nH]3)c2)cc1` [Compound 356, 4-(acetylamino)-N-[3-(8-bromo-4-oxo-3,4-dihydro[1]benzofuro[3,2-d]pyrimidin-2-yl)-4-chlorophenyl]benzamide], the pIC50 in test [1] and in test [2] was above 5.00 each time.

With `CN(C)Cc1ccc(-c2nc3c(oc4ccc(Br)cc43)c(=O)[nH]2)cc1` [Compound 358, 8-Bromo-2-{4-[(dimethylamino)methyl]phenyl}[1]benzofuro[3,2-d]pyrimidin-4(3H)-one], the pIC50 in test [1] and in test [2] was above 5.00 in each case.

With `O=c1[nH]c(-c2ccc(OCC3CNCCO3)cc2)nc2c1oc1ccc(Br)cc12` (centres unmarked) [Compound 359, 8-Bromo-2-{4-[(morpholin-2-ylmethyl)oxy]phenyl}[1]benzofuro[3,2-d]pyrimidin-4(3H)-one], the pIC50 in test [1] and in test [2] was above 5.00 each time.

On to `O=C(Nc1ccc(-c2nc3c(oc4ccc(Br)cc43)c(=O)[nH]2)cc1)c1ccncc1` [Compound 360, N-[4-(8-bromo-4-oxo-3,4-dihydro[1]benzofuro[3,2-d]pyrimidin-2-yl)phenyl]pyridine-4-carboxamide], for which the pIC50 in test [1] and in test [2] was above 5.00 in each case.

Regarding `O=C(Nc1ccc(Cl)c(-c2nc3c(oc4ccc(Br)cc43)c(=O)[nH]2)c1)C1CCOC1` (centres unmarked) [Compound 361, N-[3-(8-bromo-4-oxo-3,4-dihydro[1]benzofuro[3,2-d]pyrimidin-2-yl)-4-chlorophenyl]tetrahydrofuran-3-carboxamide], the pIC50 in test [1] and in test [2] was above 5.00 each time.

Regarding `CC(=O)N[C@H]1CCN(Cc2nc3c(oc4ccc(Br)cc43)c(=O)[nH]2)C1` [Compound 365, N-{(3S)-1-[(8-bromo-4-oxo-3,4-dihydro[1]benzofuro[3,2-d]pyrimidin-2-yl)methyl]pyrrolidin-3-yl}acetamide], the pIC50 in test [1] and in test [2] was above 5.00 throughout.

In the case of `O=C(Nc1ccc(Cl)c(-c2nc3c(oc4ccc(Br)cc43)c(=O)[nH]2)c1)c1ccccc1` [Compound 371, N-[3-(8-bromo-4-oxo-3,4-dihydro[1]benzofuro[3,2-d]pyrimidin-2-yl)-4-chlorophenyl]benzamide], the pIC50 in test [1] and in test [2] was above 5.00 throughout.

On to `O=C(Nc1ccc(Cl)c(-c2nc3c(oc4ccc(Br)cc43)c(=O)[nH]2)c1)c1ccno1` [Compound 372, N-[3-(8-bromo-4-oxo-3,4-dihydro[1]benzofuro[3,2-d]pyrimidin-2-yl)-4-chlorophenyl]isoxazole-5-carboxamide], for which the pIC50 in test [1] and in test [2] was above 5.00 each time.

Turning to `NC[C@H]1CC[C@H](c2nc3c(oc4ccc(Br)cc43)c(=O)[nH]2)CC1` [Compound 376, 2-[trans-4-(Aminomethyl)cyclohexyl]-8-bromo[1]benzofuro[3,2-d]pyrimidin-4(3H)-one], the pIC50 in test [1] and in test [2] was above 5.00 in each case.

Take `CNCc1ccc(-c2nc3c(oc4ccc(Br)cc43)c(=O)[nH]2)cc1` [Compound 382, 8-bromo-2-{4-[(methylamino)methyl]phenyl}[1]benzofuro[3,2-d]pyrimidin-4(3H)-one]: the negative-log IC50 (pIC50) in test [1] and in test [2] was above 5.00 in each case.

With `O=C(Nc1ccc(-c2nc3c(oc4ccc(Br)cc43)c(=O)[nH]2)c(Cl)c1)c1ccc(-n2cccn2)nc1` [Compound 396, N-[4-(8-bromo-4-oxo-3,4-dihydro[1]benzofuro[3,2-d]pyrimidin-2-yl)-3-chlorophenyl]-6-(1H-pyrazol-1-yl)pyridine-3-carboxamide], the pIC50 in test [1] and in test [2] was above 5.00 in each case.

For `O=C(Nc1ccc(-c2nc3c(oc4ccc(Br)cc43)c(=O)[nH]2)c(Cl)c1)c1cnc2ccccc2n1` [Compound 397, N-[4-(8-bromo-4-oxo-3,4-dihydro[1]benzofuro[3,2-d]pyrimidin-2-yl)-3-chlorophenyl]quinoxaline-2-carboxamide], the negative-log IC50 (pIC50) in test [1] and in test [2] was above 5.00 in each case.

Regarding `O=c1[nH]c(CN2CCC[C@@H](O)C2)nc2c1oc1ccc(Br)cc12` [Compound 402, 8-bromo-2-{[(3R)-3-hydroxypiperidin-1-yl]methyl}[1]benzofuro[3,2-d]pyrimidin-4(3H)-one], the pIC50 in test [1] and in test [2] was above 5.00 throughout.

In the case of `CC(O)CN(Cc1nc2c(oc3ccc(Br)cc32)c(=O)[nH]1)CC(C)O` (centres unmarked) [Compound 403, 2-{[bis(2-hydroxypropyl)amino]methyl}-8-bromo[1]benzofuro[3,2-d]pyrimidin-4(3H)-one], the pIC50 in test [1] and in test [2] was above 5.00 each time.

As to `O=C(Nc1ccc(-c2nc3c(oc4ccc(Br)cc43)c(=O)[nH]2)c(Cl)c1)c1ccc2cccnc2n1` [Compound 405, N-[4-(8-bromo-4-oxo-3,4-dihydro[1]benzofuro[3,2-d]pyrimidin-2-yl)-3-chlorophenyl]-1,8-naphthyridine-2-carboxamide], the negative-log IC50 (pIC50) in test [1] and in test [2] was above 5.00 in each case.

Turning to `CN(Cc1nc2c(oc3ccc(Br)cc32)c(=O)[nH]1)CC(O)CO` (centres unmarked) [Compound 409, 8-bromo-2-{[(2,3-dihydroxypropyl)(methyl)amino]methyl}[1]benzofuro[3,2-d]pyrimidin-4(3H)-one], the pIC50 in test [1] and in test [2] was above 5.00 in each case.

Regarding `O=c1[nH]c(CN(CCO)CCO)nc2c1oc1ccc(Br)cc12` [Compound 410, 2-{[bis(2-hydroxyethyl)amino]methyl}-8-bromo[1]benzofuro[3,2-d]pyrimidin-4(3H)-one], the pIC50 in test [1] and in test [2] was above 5.00 in each case.

As to `O=C(NCc1ccccc1Cl)C1(O)CCN(Cc2nc3c(oc4ccc(Br)cc43)c(=O)[nH]2)C1` (centres unmarked) [Compound 411, ′1-[(8-bromo-4-oxo-3,4-dihydro[1]benzofuro[3,2-d]pyrimidin-2-yl)methyl]-N-[(2-chlorophenyl)methyl]-3-hydroxypyrrolidine-3-carboxamide], the negative-log IC50 (pIC50) in test [1] and in test [2] was above 5.00 in each case.

For the molecule `O=C(Nc1ccncc1)Nc1ccc(-c2nc3c(oc4ccc(Br)cc43)c(=O)[nH]2)c(Cl)c1` [Compound 415, 1-[4-(8-bromo-4-oxo-3,4-dihydro[1]benzofuro[3,2-d]pyrimidin-2-yl)-3-chlorophenyl]-3-pyridin-4-ylurea], the pIC50 in test [1] and in test [2] was above 5.00 each time.

For the molecule `Cc1ccc2oc3c(=O)[nH]c(CN4CC[C@H](O)C4)nc3c2c1[N+](=O)O` [Compound 424, hydroxy(2-{[(3S)-3-hydroxypyrrolidin-1-yl]methyl}-8-methyl-4-oxo-3,4-dihydro[1]benzofuro[3,2-d]pyrimidin-9-yl)oxoammonium], the pIC50 in test [1] and in test [2] was above 5.00 throughout.

Turning to `COc1cc2oc3c(=O)[nH]c(CN4CC[C@H](O)C4)nc3c2cc1Br` [Compound 436, 8-bromo-2-{[(3S)-3-hydroxypyrrolidin-1-yl]methyl}-7-(methyloxy)[1]benzofuro[3,2-d]pyrimidin-4(3H)-one], the pIC50 in test [1] and in test [2] was above 5.00 in each case.

Values taken from patent publication US20090247559A1 (Exelixis, Inc., priority 2007, published 2009).
